Results on one compound are retold here after publication PMC11124362, “Metabolism, Disposition, Excretion, and Potential Transporter Inhibition of 7–16, an Improving 5-HT2A Receptor Antagonist and Inverse Agonist for Parkinson’s Disease” (Molecules, 2024).

Data set [1] concerns the target T1, OATP1B1 (Homo sapiens, UniProt Q9Y6L6).
T1 sequence (Q9Y6L6 1-691): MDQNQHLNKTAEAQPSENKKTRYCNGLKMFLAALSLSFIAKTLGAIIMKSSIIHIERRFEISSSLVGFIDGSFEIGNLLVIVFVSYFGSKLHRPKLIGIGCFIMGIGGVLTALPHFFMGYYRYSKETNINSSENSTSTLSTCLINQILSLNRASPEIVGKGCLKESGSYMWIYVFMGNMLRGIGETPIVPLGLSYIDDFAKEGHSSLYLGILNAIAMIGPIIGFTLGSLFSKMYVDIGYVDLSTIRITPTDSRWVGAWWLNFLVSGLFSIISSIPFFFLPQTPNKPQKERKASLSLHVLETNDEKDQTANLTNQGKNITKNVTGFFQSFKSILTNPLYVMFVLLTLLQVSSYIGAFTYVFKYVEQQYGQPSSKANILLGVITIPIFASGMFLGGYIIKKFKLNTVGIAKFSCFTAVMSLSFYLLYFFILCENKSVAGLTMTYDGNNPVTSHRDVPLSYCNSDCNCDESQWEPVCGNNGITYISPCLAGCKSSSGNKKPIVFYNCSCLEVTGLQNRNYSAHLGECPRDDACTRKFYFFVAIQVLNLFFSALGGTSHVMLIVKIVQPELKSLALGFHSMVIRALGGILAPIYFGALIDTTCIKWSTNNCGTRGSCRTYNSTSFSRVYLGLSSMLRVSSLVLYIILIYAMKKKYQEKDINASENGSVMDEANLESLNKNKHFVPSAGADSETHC

Data set [2] can be described thus: Metabolite identification in monkey liver microsomes. It is filed as in vitro ADME. The note with it: 7–16 10 µM, liver microsomes 1 mg/mL, NADPH, 37 °C, 60 min. The method, then: In accordance with our previous methods, 7–16 (10 µM) was incubated with mouse, rat, dog, monkey, and human liver microsome proteins (1 mg/mL) in 100 mM sodium phosphate buffer (pH 7.4) containing 10 mM magnesium chloride and 2 mM NADPH at 37 °C for 60 min. All samples were prepared in duplicates. The reactions were terminated by adding three times the volume of ice-cold acetonitrile (600 µL) and stored at −20 °C until analysis. Control samples without NADPH and 0-time point samples were included. As a positive control, testosterone (10 µM), which was metabolized to produce the hydroxylation metabolite, was used as a substrate to confirm the activity of the incubation system.
After pre-treatments, the samples were analyzed by an Acquity UPLC system coupled with a diode array detector (Waters Corporation, Milford, MA, USA) and Q Exactive HRMS (Thermo Electron Corporation, Waltham, MA, USA) (UPLC–UV-Q Exactive HRMS). Samples were separated on an Agilent XDB C18 column (150 × 2.1 mm i.d. 3.5 μm, Agilent Corporation, Santa Clara, CA, USA) at 40 °C by gradient elution with water and acetonitrile containing 0.1% formic acid. The flow rate was 0.40 mL/min. The ultraviolet (UV) detection wavelength was 286 nm. Q Exactive HRMS were operated at positive ion mode (3.5 kV) using a heating electrospray ionization source. Mass calibration was required to be performed before conducting experiments so as to achieve the best mass accuracy and mass calibration should be performed every five days. The metabolites were detected by full MS/dd-MS^2 analysis from m/z 100 to m/z 1000. The resolution of the first-class scan and second-class scan was 70,000 and 17,500, respectively. Thermo Compound Discover software was used to identify expected and unknown metabolites, and we finally proposed the 7–16 metabolic pathways based on the deduced metabolites and relevant drug biotransformation knowledge.

Regarding `CN1CCC(N(Cc2ccc(F)cn2)C(=O)NCc2ccc(OCC(F)(F)F)cc2)CC1` [7–16, 3-(4-(2,2,2-trifluoroethoxy)benzyl)-1-((5-fluoropyridin-2-yl)methyl)-1-(1-methylpiperidin-4-yl) urea], the IC50 in data set [1] was above 100 µM. In addition, the “Relative Abundance, UV Area% Monkey” value in data set [2] worked out at 90.6%.
